In ChEMBL document CHEMBL1144325, “Synthesis and monoamine transporter affinity of new 2beta-carbomethoxy-3beta-[4-(substituted thiophenyl)]phenyltropanes: discovery of a selective SERT antagonist with picomolar potency” (Bioorg Med Chem Lett, 2005):

Assays:
[1] = molecular target: Sodium-dependent serotonin transporter (Rattus norvegicus, UniProt P31652); assay: Displacement of [3H]paroxetine from serotonin transporter of rat cerebral cortex; type: tissue-based
[2] = molecular target: Sodium-dependent dopamine transporter (Rattus norvegicus, UniProt P23977); assay: Displacement of [3H]GBR-12935 from dopamine transporter of rat caudate-putamen; type: tissue-based
[3] = molecular target: Monoamine transporters; serotonin & dopamine (Rattus norvegicus) (UniProt P31652+P23977); assay: Selectivity for inhibition of serotonin and dopamine transporters; type: protein assay
[4] = molecular target: Monoamine transporters; Norepinephrine & serotonin (Rattus norvegicus) (UniProt P31652+Q9WTR4); assay: Selectivity for inhibition of serotonin and norepinephrine transporters; type: protein assay
[5] = molecular target: Norepinephrine transporter (Rattus norvegicus, UniProt Q9WTR4); assay: Displacement of [3H]nisoxetine from norepinephrine transporter of rat cerebral cortex; type: tissue-based
Norepinephrine transporter, sequence (Q9WTR4 whole entry): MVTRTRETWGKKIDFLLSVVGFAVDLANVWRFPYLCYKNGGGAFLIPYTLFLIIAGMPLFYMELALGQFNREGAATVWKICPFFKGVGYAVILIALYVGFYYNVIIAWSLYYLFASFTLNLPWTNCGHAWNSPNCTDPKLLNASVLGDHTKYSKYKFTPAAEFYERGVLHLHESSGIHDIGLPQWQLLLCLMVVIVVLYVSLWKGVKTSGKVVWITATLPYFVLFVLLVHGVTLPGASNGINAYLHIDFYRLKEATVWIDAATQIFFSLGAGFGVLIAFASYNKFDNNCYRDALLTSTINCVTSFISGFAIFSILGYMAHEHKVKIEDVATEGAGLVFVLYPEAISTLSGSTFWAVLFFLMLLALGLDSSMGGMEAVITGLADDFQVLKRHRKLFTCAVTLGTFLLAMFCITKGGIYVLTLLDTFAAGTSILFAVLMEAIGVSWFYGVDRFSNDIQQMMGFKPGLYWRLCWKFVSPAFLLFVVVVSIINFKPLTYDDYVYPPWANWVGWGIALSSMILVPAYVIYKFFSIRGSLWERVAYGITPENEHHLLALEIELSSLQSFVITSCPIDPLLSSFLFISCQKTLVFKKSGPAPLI

Sodium-dependent dopamine transporter, sequence (P23977 whole entry): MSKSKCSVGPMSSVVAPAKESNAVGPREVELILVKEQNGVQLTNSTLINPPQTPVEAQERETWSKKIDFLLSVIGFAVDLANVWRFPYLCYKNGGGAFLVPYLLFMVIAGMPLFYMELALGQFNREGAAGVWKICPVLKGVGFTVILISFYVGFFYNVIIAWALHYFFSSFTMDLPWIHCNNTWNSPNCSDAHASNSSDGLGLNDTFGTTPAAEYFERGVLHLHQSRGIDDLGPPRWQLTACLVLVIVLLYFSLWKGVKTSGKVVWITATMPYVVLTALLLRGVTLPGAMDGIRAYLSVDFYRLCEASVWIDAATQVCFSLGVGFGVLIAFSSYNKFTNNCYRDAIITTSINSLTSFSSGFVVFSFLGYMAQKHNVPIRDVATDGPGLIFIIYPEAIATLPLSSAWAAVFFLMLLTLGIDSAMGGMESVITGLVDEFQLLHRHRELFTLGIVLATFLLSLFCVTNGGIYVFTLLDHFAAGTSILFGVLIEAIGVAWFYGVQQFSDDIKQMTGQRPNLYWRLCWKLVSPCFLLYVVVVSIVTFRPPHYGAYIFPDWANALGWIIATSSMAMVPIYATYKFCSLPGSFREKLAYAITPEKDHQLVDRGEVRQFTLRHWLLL
Monoamine transporters; serotonin & dopamine (Rattus norvegicus), sequence (P23977 whole entry, looked up): as the sequence (P23977 whole entry) above
Monoamine transporters; serotonin & dopamine (Rattus norvegicus), sequence (P31652 whole entry, looked up): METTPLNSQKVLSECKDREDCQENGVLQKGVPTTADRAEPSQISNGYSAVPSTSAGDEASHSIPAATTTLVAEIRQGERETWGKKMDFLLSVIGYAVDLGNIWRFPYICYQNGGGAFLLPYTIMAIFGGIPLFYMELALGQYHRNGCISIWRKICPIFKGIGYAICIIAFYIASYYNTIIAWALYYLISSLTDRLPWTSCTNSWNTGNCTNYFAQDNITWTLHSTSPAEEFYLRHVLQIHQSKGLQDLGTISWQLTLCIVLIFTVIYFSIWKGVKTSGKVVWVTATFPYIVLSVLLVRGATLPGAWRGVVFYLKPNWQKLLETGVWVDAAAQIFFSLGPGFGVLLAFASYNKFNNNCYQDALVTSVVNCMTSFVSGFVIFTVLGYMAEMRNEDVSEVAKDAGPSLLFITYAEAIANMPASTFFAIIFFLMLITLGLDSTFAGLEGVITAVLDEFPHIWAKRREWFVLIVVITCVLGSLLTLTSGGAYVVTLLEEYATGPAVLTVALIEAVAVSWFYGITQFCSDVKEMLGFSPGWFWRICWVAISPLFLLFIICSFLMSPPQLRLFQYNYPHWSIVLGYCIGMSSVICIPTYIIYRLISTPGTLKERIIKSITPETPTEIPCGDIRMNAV
Sodium-dependent serotonin transporter, sequence (P31652 whole entry): as the sequence (P31652 whole entry, looked up) above

SMILES	Ki [1] [nM]	Ki [2] [nM]	Ratio [3]	Ratio [4]	Ki [5] [nM]
COC(=O)C1C(c2ccc(-c3ccsc3)cc2)CC2CCC1N2C (configuration not stated)	0.017	12.1	710	11100	189
COC(=O)C1C(c2ccc(-c3cc([N+](=O)[O-])c([N+](=O)[O-])s3)cc2)CC2CCC1N2C (configuration not stated)	5000	> 30000	> 6	> 2	> 10000
COC(=O)C1C(c2ccc(-c3ccc(Cl)s3)cc2)CC2CCC1N2C (configuration not stated)	0.64	4.42	6.9	486	311
COC(=O)C1C(c2ccc(-c3ccc(Br)s3)cc2)CC2CCC1N2C (configuration not stated)	0.38	6.43	17	853	324
COC(=O)C1C2CCC(CC1c1ccc(-c3ccsc3)cc1)N2 (configuration not stated)	0.23	6.4	28	170	39
COC(=O)C1C(c2ccc(-c3ccc(N)s3)cc2)CC2CCC1N2C (configuration not stated)	64.7	> 10000	> 155	> 464	> 30000
COC(=O)C1C(c2ccc(-c3ccc(I)s3)cc2)CC2CCC1N2C (configuration not stated)	4.56	22.1	4.9	249	1140
COC(=O)C1C(c2ccc(-c3cccs3)cc2)CC2CCC1N2C (configuration not stated)	0.15	52	346	1050	158
COC(=O)C1C2CCC(CC1c1ccc(-c3cccs3)cc1)N2 (configuration not stated)	0.11	12.2	111	685	75.3
COC(=O)C1C(c2ccc(-c3cscc3Br)cc2)CC2CCC1N2C (configuration not stated)	4.02	183	46	> 2490	> 10000
COC(=O)C1C(c2ccc(I)cc2)CC2CCC1N2C (configuration not stated)			2.1	6.1	
